# Data taken from patent publication US6051596A, “Immunosuppressive compositions” (AnorMED, Inc., priority 1997, dated 2000).
# Tested on: Lewis-Brown Norway F1 hybrid cardiac allografts in Lewis rat recipients
# Assay: Acute cardiac allograft rejection model in rats (procedure of Kupiec-Weglinski)
# Format: in vivo
# Conditions: for GRAFT SURVIVAL (days) MEAN ± SD: N=7
# Protocol: The therapeutic efficacy of a pharmaceutical composition of the invention was tested according to the procedure of Kupiec-Weglinski, J. W., et al., (1988) Transplant Proc. 2:207-216 (hereinafter "Kupiec-Weglinski") to determine its in vivo potency as an acute transplantation/graft rejection modulator.
# Briefly, to preform these experiments, the following protocol was employed. Male inbred adult rats (Lewis-Brown Norway F1 Hybrid rats, obtained from Harlan sprague-Dawley Inc., Indianapolis, Ind.) were used. Lewis-Brown Norway F1 Hybrid cardiac allografts were transplanted to the abdominal great vessels of Lewis recipients. The animals were administered compounds according to the following five distinct regimens.
# Protocol I. Pretreatment Protocol--20 mg/kg/day of Compound A was administered orally for 7 consecutive days prior to transplantation (days -7 to -1).
# Protocol II Treatment Protocol--20 mg/kg/day of Compound A was administered orally for 7 consecutive post-transplant days (days 0-6) followed by intermittent 5 day courses (days 9-13 and 16-20).
# Protocol III Pretreatment and Treatment Protocol--20 mg/kg/day of Compound A was administered orally for 7 consecutive days prior to transplantation (days -7 to -1) followed by intermittent 5 day courses (days 9-13 and 16-20).
# Ventricular contractions were assessed daily by palpation through the recipient flank. Rejection was defined as the day of cessation of myocardial contractions and confirmed histologically.
compound,measurement,setting,value
"CCCC1(CCC)CCC2(CCN(CCCN(C)C)C2)CC1 [Compound A, N,N-dimethyl-8,8-dipropyl-2-azaspiro[4,5]-decane-2-propanamine]",GRAFT SURVIVAL (days) MEAN ± SD,"Protocol I pretreatment: 20 mg/kg/day orally, days -7 to -1",14.7 ± 5.8 days
same,GRAFT SURVIVAL (days) MEAN ± SD,"Protocol II treatment: 20 mg/kg/day orally, days 0-6, then days 9-13 and 16-20",16.7 ± 2.0 days
same,GRAFT SURVIVAL (days) MEAN ± SD,"Protocol III pretreatment and treatment: 20 mg/kg/day orally, days -7 to -1, then days 9-13 and 16-20",16.0 ± 4.3 days
same,average graft survival time,"single compound protocols (pretreatment, treatment or both), 20 mg/kg/day orally, untreated average 7 days",16 days
